For one series, the system named is AML12 hepatocytes. Description: Cell viability, WST-8 assay. The class given is cell-based. The following applies: concentrations up to 100 µM, 2 h. The method, then:
The viability of AML12 cells was determined using the WST-8 assay provided in the Cell Counting Kit-8 (Dojindo Laboratories, Kumamoto, Japan). Cells were initially seeded at 5 × 10^3 cells per well in 96-well plates and maintained in DMEM/F-12 medium containing 10% (v/v) FBS for 72 h. To induce serum deprivation, the medium was replaced with serum-free DMEM/F-12, and cells were incubated for an additional 24 h. […] The treatment lasted for 2 h. Subsequently, cells were washed again with BSS and incubated with the WST-8 reagent for 1 h. Absorbance was measured at 490 nm using a microplate reader (MTP-310Lab; CORONA […] Co., Ltd., […], Japan). Cell viability was normalized to the DMSO control (0 μM), which was set at 100%.
On the technique in general: Tetrazolium dyes change colour on reduction, which living cells bring about.

The next series concerns XO. The following applies: read-out: IC50, XO inhibition (previous report); cited from earlier work.

SMILES strings stand for the structures. Bounds are passed on as bounds.

The IC50 is the concentration needed to halve the response being measured.

Regarding `O=C(/C=C/c1ccc(O)cc1)OC[C@H]1O[C@@H](Oc2c(-c3ccc(O)cc3)oc3cc(O)cc(O)c3c2=O)[C@H](O)[C@@H](O)[C@@H]1O` [Tiliroside, kaempferol-3-O-(6′′-p-coumaroyl)-glucoside], the “cytotoxic effects (cell viability)” value in the series with AML12 hepatocytes is “did not exhibit any cytotoxic effects”. Also, the IC50 in the series on XO was more than 100 µM.
